# Patent publication US20140094424A1, “MICROBICIDAL COMPOSITIONS AND METHODS OF PRODUCTION USE THEREOF” (priority 2011, published 2014)
# What was measured:
# [1] = test system: Pseudomonas fluorescens (D); assay: MBC (minimum bactericidal concentration) test in Wash NEXT reagent; format: cell-based
# Protocol: (§1) The stock organisms were thawed and subbed prior to beginning the MBC test. Molds were subbed to SDA plates one week before, and the bacteria were subbed to TAT agar plates 24 hours prior to the start of the test. All plates were incubated at 32 degrees C.
# (§2) Each bacterial organism was inoculated into 40 ml sterile saline in a centrifuge tube to create a density of MacFarland #1. Two serial dilutions of 1:100 were then made, resulting in 10^−2 and 10^−4 concentrations. Each dilution was vortexed before it was sampled, and sterile Eppendorf pipette tips were used to make each transfer. The 10^−4 dilution was spiral plated to yield the initial inoculum concentration.
# (§3) MBC trays were set up with the prepared test reagent. Using a Matrix pipettor, 100 μl aliquots of reagent were distributed into the wells, diluting the amount of preservative from 100% to 10% increments, using unpreserved reagent as the diluent. In one row, 100% non-preserved reagent acted as a positive control and served as a benchmark for a full mat of growth. In well #12H, 100 μl unpreserved reagent was pipetted, and this well was not inoculated with organisms, as it served as the negative control. Once all of the trays were prepared, the prepared bacteria/mold suspensions were poured into the MBC inoculating trays. These were placed onto the reagent trays, and 0.01 ml inoculum was introduced into the 100 μl of reagent in each well.
# (§4) This was done by dipping a sterile cotton swab into each well, and absorbing all of the liquid in the well. The swab was rolled onto a TAT agar plate ensuring that the entire swab touches the agar. Plates ware incubated at 32 degrees C. for 48 hours to 7 days, depending on the organism. Observations for growth were performed by a scoring matrix using + for a full mat, +/− for some growth, a numerical value for an actual colony count, and—for no growth.
# (§5) Below are tables that contain the data obtained in Example 1. The MBC test is scored by (+) indicating a full grown mat of organisms, equivalent to the organisms in the unpreserved reagent. (+/−) indicates there is some kill evident disturbing that mat or bringing the quantities down to an almost countable level. An actual number is the actual number of colonies growing at that concentration of preservative. (−) indicates no growth found. The MBC trays were stored at room temperature for the entire test.
# (§6) The materials and methods and analysis of the MBC test were the same as in Example 1.
# [2] = test system: Pseudomonas putida (K); assay: as above; format: cell-based
# Protocol: as §1, §2, §3, §4, §5, §6
compound,measurement,setting,value
"Cc1cc(NS(=O)(=O)c2ccc(N)cc2)no1 [Sulfamethoxazole, sulfamethoxazole]",MBC test growth score,"[1]; 10% preservative, 8 hour",+
same,MBC test growth score,"[1]; 10% preservative, 24 hour",+
same,MBC test growth score,"[1]; 10% preservative, 48 hour",+/−
same,MBC test growth score,"[1]; 10% preservative, 72 hour",+/−
same,MBC test growth score,"[1]; 20% preservative, 8 hour",+
same,MBC test growth score,"[1]; 20% preservative, 24 hour",+
same,MBC test growth score,"[1]; 20% preservative, 48 hour",+/−
same,MBC test growth score,"[1]; 20% preservative, 72 hour",+/−
same,MBC test growth score,"[1]; 30% preservative, 8 hour",+
same,MBC test growth score,"[1]; 30% preservative, 24 hour",+
same,MBC test growth score,"[1]; 30% preservative, 48 hour",+
same,MBC test growth score,"[1]; 30% preservative, 72 hour",+/−
same,MBC test growth score,"[1]; 40% preservative, 8 hour",+
same,MBC test growth score,"[1]; 40% preservative, 24 hour",+
same,MBC test growth score,"[1]; 40% preservative, 48 hour",+
same,MBC test growth score,"[1]; 40% preservative, 72 hour",+/−
same,MBC test growth score,"[1]; 50% preservative, 8 hour",+
same,MBC test growth score,"[1]; 50% preservative, 24 hour",+
same,MBC test growth score,"[1]; 50% preservative, 48 hour",+
same,MBC test growth score,"[1]; 50% preservative, 72 hour",+/−
same,MBC test growth score,"[1]; 60% preservative, 8 hour",+
same,MBC test growth score,"[1]; 60% preservative, 24 hour",+
same,MBC test growth score,"[1]; 60% preservative, 48 hour",+
same,MBC test growth score,"[1]; 60% preservative, 72 hour",+/−
same,MBC test growth score,"[1]; 70% preservative, 8 hour",+
same,MBC test growth score,"[1]; 70% preservative, 24 hour",+
same,MBC test growth score,"[1]; 70% preservative, 48 hour",+
same,MBC test growth score,"[1]; 70% preservative, 72 hour",+/−
same,MBC test growth score,"[1]; 80% preservative, 8 hour",+
same,MBC test growth score,"[1]; 80% preservative, 24 hour",+
same,MBC test growth score,"[1]; 80% preservative, 48 hour",+
same,MBC test growth score,"[1]; 80% preservative, 72 hour",+/−
same,MBC test growth score,"[1]; 90% preservative, 8 hour",+
same,MBC test growth score,"[1]; 90% preservative, 24 hour",+
same,MBC test growth score,"[1]; 90% preservative, 48 hour",+
same,MBC test growth score,"[1]; 90% preservative, 72 hour",+/−
same,MBC test growth score,"[1]; 100% preservative, 8 hour",+
same,MBC test growth score,"[1]; 100% preservative, 24 hour",+
same,MBC test growth score,"[1]; 100% preservative, 48 hour",+
same,MBC test growth score,"[1]; 100% preservative, 72 hour",+/−
same,MBC test growth score,"[2]; 10% preservative, 8 hour",+
same,MBC test growth score,"[2]; 10% preservative, 24 hour",2
same,MBC test growth score,"[2]; 10% preservative, 48 hour",+/−
same,MBC test growth score,"[2]; 10% preservative, 72 hour",+/−
same,MBC test growth score,"[2]; 20% preservative, 8 hour",+
same,MBC test growth score,"[2]; 20% preservative, 24 hour",+/−
same,MBC test growth score,"[2]; 20% preservative, 48 hour",+/−
same,MBC test growth score,"[2]; 20% preservative, 72 hour",−
same,MBC test growth score,"[2]; 30% preservative, 8 hour",+
same,MBC test growth score,"[2]; 30% preservative, 24 hour",+/−
same,MBC test growth score,"[2]; 30% preservative, 48 hour",22
same,MBC test growth score,"[2]; 30% preservative, 72 hour",−
same,MBC test growth score,"[2]; 40% preservative, 8 hour",+
same,MBC test growth score,"[2]; 40% preservative, 24 hour",+/−
same,MBC test growth score,"[2]; 40% preservative, 48 hour",20
same,MBC test growth score,"[2]; 40% preservative, 72 hour",−
same,MBC test growth score,"[2]; 50% preservative, 8 hour",+
same,MBC test growth score,"[2]; 50% preservative, 24 hour",+/−
same,MBC test growth score,"[2]; 50% preservative, 72 hour",−
same,MBC test growth score,"[2]; 60% preservative, 8 hour",+
same,MBC test growth score,"[2]; 60% preservative, 24 hour",+/−
same,MBC test growth score,"[2]; 60% preservative, 48 hour",18
same,MBC test growth score,"[2]; 60% preservative, 72 hour",−
same,MBC test growth score,"[2]; 70% preservative, 8 hour",+
same,MBC test growth score,"[2]; 70% preservative, 24 hour",+
same,MBC test growth score,"[2]; 70% preservative, 48 hour",−
same,MBC test growth score,"[2]; 70% preservative, 72 hour",−
same,MBC test growth score,"[2]; 80% preservative, 8 hour",+
same,MBC test growth score,"[2]; 80% preservative, 24 hour",+
same,MBC test growth score,"[2]; 80% preservative, 48 hour",−
same,MBC test growth score,"[2]; 80% preservative, 72 hour",−
same,MBC test growth score,"[2]; 90% preservative, 8 hour",+
same,MBC test growth score,"[2]; 90% preservative, 24 hour",+
same,MBC test growth score,"[2]; 90% preservative, 48 hour",−
same,MBC test growth score,"[2]; 90% preservative, 72 hour",−
same,MBC test growth score,"[2]; 100% preservative, 8 hour",+
same,MBC test growth score,"[2]; 100% preservative, 24 hour",+
same,MBC test growth score,"[2]; 100% preservative, 48 hour",−
same,MBC test growth score,"[2]; 100% preservative, 72 hour",−
gentamicin,MBC test growth score,"[1]; 10% preservative, 8 hour",+
same,MBC test growth score,"[1]; 10% preservative, 24 hour",+
same,MBC test growth score,"[1]; 10% preservative, 48 hour",+/−
same,MBC test growth score,"[1]; 10% preservative, 72 hour",15
same,MBC test growth score,"[1]; 20% preservative, 8 hour",+
same,MBC test growth score,"[1]; 20% preservative, 24 hour",+
same,MBC test growth score,"[1]; 20% preservative, 48 hour",+/−
same,MBC test growth score,"[1]; 20% preservative, 72 hour",12
same,MBC test growth score,"[1]; 30% preservative, 8 hour",+
same,MBC test growth score,"[1]; 30% preservative, 24 hour",+/−
same,MBC test growth score,"[1]; 30% preservative, 48 hour",+/−
same,MBC test growth score,"[1]; 30% preservative, 72 hour",−
same,MBC test growth score,"[1]; 40% preservative, 8 hour",+
same,MBC test growth score,"[1]; 40% preservative, 24 hour",+/−
same,MBC test growth score,"[1]; 40% preservative, 48 hour",+/−
same,MBC test growth score,"[1]; 40% preservative, 72 hour",−
same,MBC test growth score,"[1]; 50% preservative, 8 hour",+/−
same,MBC test growth score,"[1]; 50% preservative, 24 hour",14
same,MBC test growth score,"[1]; 50% preservative, 48 hour",+/−
same,MBC test growth score,"[1]; 50% preservative, 72 hour",−
same,MBC test growth score,"[1]; 60% preservative, 8 hour",+/−
same,MBC test growth score,"[1]; 60% preservative, 24 hour",13
same,MBC test growth score,"[1]; 60% preservative, 48 hour",+/−
same,MBC test growth score,"[1]; 60% preservative, 72 hour",−
same,MBC test growth score,"[1]; 70% preservative, 8 hour",+/−
same,MBC test growth score,"[1]; 70% preservative, 24 hour",5
same,MBC test growth score,"[1]; 70% preservative, 48 hour",−
same,MBC test growth score,"[1]; 70% preservative, 72 hour",−
same,MBC test growth score,"[1]; 80% preservative, 8 hour",+/−
same,MBC test growth score,"[1]; 80% preservative, 24 hour",5
same,MBC test growth score,"[1]; 80% preservative, 48 hour",−
same,MBC test growth score,"[1]; 80% preservative, 72 hour",−
same,MBC test growth score,"[1]; 90% preservative, 8 hour",+/−
same,MBC test growth score,"[1]; 90% preservative, 24 hour",1
same,MBC test growth score,"[1]; 90% preservative, 48 hour",−
same,MBC test growth score,"[1]; 90% preservative, 72 hour",−
same,MBC test growth score,"[1]; 100% preservative, 8 hour",+/−
same,MBC test growth score,"[1]; 100% preservative, 24 hour",−
same,MBC test growth score,"[1]; 100% preservative, 48 hour",−
same,MBC test growth score,"[1]; 100% preservative, 72 hour",−
same,MBC test growth score,"[2]; 10% preservative, 8 hour",−
same,MBC test growth score,"[2]; 10% preservative, 24 hour",−
same,MBC test growth score,"[2]; 10% preservative, 48 hour",−
same,MBC test growth score,"[2]; 10% preservative, 72 hour",−
same,MBC test growth score,"[2]; 20% preservative, 8 hour",−
same,MBC test growth score,"[2]; 20% preservative, 24 hour",−
same,MBC test growth score,"[2]; 20% preservative, 48 hour",−
same,MBC test growth score,"[2]; 20% preservative, 72 hour",−
same,MBC test growth score,"[2]; 30% preservative, 8 hour",−
same,MBC test growth score,"[2]; 30% preservative, 24 hour",−
same,MBC test growth score,"[2]; 30% preservative, 48 hour",−
same,MBC test growth score,"[2]; 30% preservative, 72 hour",−
same,MBC test growth score,"[2]; 40% preservative, 8 hour",−
same,MBC test growth score,"[2]; 40% preservative, 24 hour",−
same,MBC test growth score,"[2]; 40% preservative, 48 hour",−
same,MBC test growth score,"[2]; 40% preservative, 72 hour",−
same,MBC test growth score,"[2]; 50% preservative, 8 hour",−
same,MBC test growth score,"[2]; 50% preservative, 24 hour",−
same,MBC test growth score,"[2]; 50% preservative, 48 hour",−
same,MBC test growth score,"[2]; 50% preservative, 72 hour",−
same,MBC test growth score,"[2]; 60% preservative, 8 hour",−
same,MBC test growth score,"[2]; 60% preservative, 24 hour",−
same,MBC test growth score,"[2]; 60% preservative, 48 hour",−
same,MBC test growth score,"[2]; 60% preservative, 72 hour",−
same,MBC test growth score,"[2]; 70% preservative, 8 hour",−
same,MBC test growth score,"[2]; 70% preservative, 24 hour",−
same,MBC test growth score,"[2]; 70% preservative, 48 hour",−
same,MBC test growth score,"[2]; 70% preservative, 72 hour",−
same,MBC test growth score,"[2]; 80% preservative, 8 hour",−
same,MBC test growth score,"[2]; 80% preservative, 24 hour",−
same,MBC test growth score,"[2]; 80% preservative, 48 hour",−
same,MBC test growth score,"[2]; 80% preservative, 72 hour",−
same,MBC test growth score,"[2]; 90% preservative, 8 hour",−
same,MBC test growth score,"[2]; 90% preservative, 24 hour",−
same,MBC test growth score,"[2]; 90% preservative, 48 hour",−
same,MBC test growth score,"[2]; 90% preservative, 72 hour",−
same,MBC test growth score,"[2]; 100% preservative, 8 hour",−
same,MBC test growth score,"[2]; 100% preservative, 24 hour",−
same,MBC test growth score,"[2]; 100% preservative, 48 hour",−
same,MBC test growth score,"[2]; 100% preservative, 72 hour",−
